Where a name gives a salt, the structure may show the parent alone.

For 23 compounds, IC50 results are on record in patent US9751885B2, “Cyclopropanamine compound and use thereof” (Takeda Pharmaceutical Company Limited, priority 2012, dated 2017).

Assay [1] concerns the target human LSD1(172-833) (Homo sapiens (Human), UniProt O60341). As to the kind of experiment: Measurement of LSD1 inhibitory activity (time-resolved fluorescence, biotin-histone H3 mono methylated K4 peptide). It is filed as biochemical. The protocol:
When the turbidity reached 500 Klett units, the culture temperature was changed to 16° C., IPTG (Isopropyl β-D-1-thiogalactopyranoside) having a final concentration of 0.5 mM was added to induce expression, and the cells were cultured further for 14 hr. The culture medium was centrifuged at 6,000 g for 15 min, and Escherichia coil pellets were recovered.
Using Branson ultrasonic disintegrator, the suspension was disrupted by ultrasonication for 3 min, and centrifuged at 33,000 g for 60 min, and the supernatant was recovered. […] It was concentrated to 10 mL with AmiconUltra (NWCO 30K) (Millipore Japan), and purified with HiLoad 26/60 Superdex 200 pg column (GE Healthcare) equilibrated with Buffer A to give hLSD1 purified product (8.4 mg). The protein concentration of hLSD1 was measured by BCA Protein Assay Kit (Thermo Fisher Scientific K.K.) using bovine serum albumin as the standard.
(5) Measurement of LSD1 Inhibitory Activity
After reaction at room temperature for 5 min, 1 mM 2-PCPA solution was added 5 μL to terminate the reaction. A detection solution ([…] potassium fluoride, 0.1% BSA) containing europium-labeled anti-histone H3 antibody (Wako Pure Chemical Industries, Ltd.) and Streptavidin-XL665 (Cisbio) was further added by 5 μL, and the mixture was left standing for 60 min.

Assay [2] has as its target MAO-A enzyme (Homo sapiens (Human), UniProt P21397). Description: Measurement of MAO-A inhibitory activity (MAO-Glo Assay). It is filed as biochemical.
Description: The MAO-A inhibitory activity evaluation described below followed the protocol of MAO-Glo (registered trademark) Assay of Promega KK.
A test compound dissolved in 4% DMSO was added by 12.5 μL to 25 μL reaction solution (100 mM HEPES (pH 7.5), 5% glycerol) containing 400 ng of MAO-A enzyme (Sigma-Aldrich Co. LLC.), and the mixture was reacted at room temperature for 10 min. […] After reaction at room temperature for 60 min, Luciferine detection reagent (Promega KK) (50 μL) was added to terminate the reaction. After reaction at room temperature for min with stirring, the luminescence was measured by Envision (PerkinElmer). The MAO-A inhibitory rate (%) of the test compound was calculated by the following formula. inhibitory rate(%)=(1−(test compound count−blank)÷(control−blank))×100
The count of the MAO-A enzyme reaction mixture under compound non-addition conditions is indicated as control, and the count under compound non-addition and MAO-A enzyme non-addition conditions is indicated as blank.
Assay [3] concerns the target MAO-B enzyme (Homo sapiens (Human), UniProt P27338). Description: Measurement of MAO-B inhibitory activity (MAO-Glo Assay).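 Also: luminescence read-out, compound preincubated 10 min with enzyme then reacted 60 min at room temperature, inhibition relative to enzyme reaction without compound, blank lacking enzyme and compound.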 Particulars: read-out: MAO-B IC50 value.

MAO-A enzyme, sequence (P21397 whole entry): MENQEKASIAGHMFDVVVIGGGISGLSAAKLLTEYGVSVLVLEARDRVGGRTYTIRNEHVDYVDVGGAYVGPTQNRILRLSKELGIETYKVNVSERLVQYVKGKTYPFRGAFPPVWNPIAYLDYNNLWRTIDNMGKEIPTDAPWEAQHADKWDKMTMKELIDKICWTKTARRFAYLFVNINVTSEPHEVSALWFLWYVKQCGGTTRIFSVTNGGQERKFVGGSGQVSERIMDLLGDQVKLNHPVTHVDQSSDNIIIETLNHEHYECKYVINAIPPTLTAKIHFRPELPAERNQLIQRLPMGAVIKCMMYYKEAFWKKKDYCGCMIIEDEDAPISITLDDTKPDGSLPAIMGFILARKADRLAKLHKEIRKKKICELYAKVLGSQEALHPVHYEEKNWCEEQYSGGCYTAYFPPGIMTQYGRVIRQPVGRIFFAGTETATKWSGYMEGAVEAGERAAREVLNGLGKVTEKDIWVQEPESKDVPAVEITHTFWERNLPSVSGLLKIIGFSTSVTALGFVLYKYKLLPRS
MAO-B enzyme, sequence (P27338 whole entry): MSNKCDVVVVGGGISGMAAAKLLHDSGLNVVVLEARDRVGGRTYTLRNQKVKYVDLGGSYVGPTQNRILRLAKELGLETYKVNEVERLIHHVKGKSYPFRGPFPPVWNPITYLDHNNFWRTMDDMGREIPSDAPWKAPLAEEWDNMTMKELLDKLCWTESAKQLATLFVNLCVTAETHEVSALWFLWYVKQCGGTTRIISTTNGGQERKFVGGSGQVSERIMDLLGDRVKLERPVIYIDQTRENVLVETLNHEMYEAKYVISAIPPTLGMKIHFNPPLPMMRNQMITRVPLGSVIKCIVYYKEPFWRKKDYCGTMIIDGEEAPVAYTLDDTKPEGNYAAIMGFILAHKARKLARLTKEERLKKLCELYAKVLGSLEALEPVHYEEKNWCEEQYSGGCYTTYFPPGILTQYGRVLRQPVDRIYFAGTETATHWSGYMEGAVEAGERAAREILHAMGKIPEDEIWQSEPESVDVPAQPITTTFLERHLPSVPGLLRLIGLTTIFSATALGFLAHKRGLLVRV

For `O=C(Nc1ccc2ncsc2c1)c1cccc([C@@H]2C[C@H]2NCC2CC2)c1` (relative stereo) [Example 144, N-(1,3-benzothiazol-6-yl)-3-(trans-2-((cyclopropylmethyl)amino)cyclopropyl)benzamide trifluoroacetate], the IC50 (as a rule, the concentration needed to halve the response being measured) in assay [1] is under 100 nM; in assay [2], over 10000 nM; in assay [3], over 10000 nM.
As to `O=C(NCc1ccncc1)c1ccc([C@@H]2C[C@H]2NCC2CC2)cc1` (relative stereo) [Example 17, 4-(trans-2-((cyclopropylmethyl)amino)cyclopropyl)-N-(pyridin-4-ylmethyl)benzamide bis(trifluoroacetate)], the IC50 is under 100 nM in assay [1], over 10000 nM in assay [2] and over 10000 nM in assay [3].
On to `Cn1cc(NC(=O)c2ccc([C@@H]3C[C@H]3N)cc2)cn1` (relative stereo) [Example 51, 4-(trans-2-aminocyclopropyl)-N-(1-methyl-1H-pyrazol-4-yl)benzamide dihydrochloride], for which the half-maximal inhibitory concentration (IC50) in assay [1] was under 100 nM; in assay [2], 830 nM; in assay [3] it was over 10000 nM.
On the same counts, the results for `CN1CCN(c2ccc(NC(=O)c3ccc([C@@H]4C[C@H]4NCC4CC4)cc3)cc2)CC1` (relative stereo) [Example 23, 4-(trans-2-((cyclopropylmethyl)amino)cyclopropyl)-N-(4-(4-methylpiperazin-1-yl)phenyl)benzamide tris(trifluoroacetate)] are under 100 nM, over 10000 nM and over 10000 nM.
For `N[C@@H]1C[C@H]1c1ccc(C(=O)Nc2cccc(C(F)(F)F)c2)cc1` (relative stereo) [Example 4, 4-(trans-2-aminocyclopropyl)-N-(3-(trifluoromethyl)phenyl)benzamide hydrochloride] the same measures were under 100 nM, 190 nM and 540 nM.
For `CN1CCC(N[C@@H]2C[C@H]2c2cccc(C(=O)Nc3cnn(CC4CC4)c3)c2)CC1` (relative stereo) [Example 202, N-(1-(cyclopropylmethyl)-1H-pyrazol-4-yl)-3-(trans-2-((1-methylpiperidin-4-yl)amino)cyclopropyl)benzamide trihydrochloride] the same measures were under 100 nM, over 10000 nM and over 10000 nM.
In the case of `CN(C(=O)c1ccc([C@@H]2C[C@H]2N)cc1)c1ccccc1` (relative stereo) [Example 3, 4-(trans-2-aminocyclopropyl)-N-methyl-N-phenylbenzamide hydrochloride], the IC50 in assay [1] was under 100 nM; in assay [2] it was 250 nM; in assay [3], over 10000 nM.
For `N#Cc1cccc(CN[C@@H]2C[C@H]2c2ccc(C(=O)NCc3ccccc3)cc2)c1` (relative stereo) [Example 43, N-benzyl-4-(trans-2-((3-cyanobenzyl)amino)cyclopropyl)benzamide trifluoroacetate] the same measures were under 100 nM, 1500 nM and over 10000 nM.
For `O=C(NC1CCCC1)c1cccc([C@@H]2C[C@H]2NCC2CCOCC2)c1` (relative stereo) [Example 83, N-cyclopentyl-3-(trans-2-((tetrahydro-2H-pyran-4-ylmethyl)amino)cyclopropyl)benzamide hydrochloride] the same measures were under 100 nM, over 10000 nM and over 10000 nM.
For `O=C(Nc1ccc(OC(F)(F)F)cc1)c1cccc([C@@H]2C[C@H]2NCC2CC2)c1` (relative stereo) [Example 123, 3-(trans-2-((cyclopropylmethyl)amino)cyclopropyl)-N-(4-(trifluoromethoxy)phenyl)benzamide trifluoroacetate], the IC50 is under 100 nM in assay [1], over 10000 nM in assay [2] and over 10000 nM in assay [3].
`CS(=O)(=O)c1ccc(NC(=O)c2cccc([C@@H]3C[C@H]3NCC3CC3)c2)cc1` (relative stereo) [Example 124, 3-(trans-2-((cyclopropylmethyl)amino)cyclopropyl)-N-(4-(methylsulfonyl)phenyl)benzamide trifluoroacetate]: the IC50 in assay [1] was under 100 nM; in assay [2], over 10000 nM; in assay [3] it was over 10000 nM.
On to `Cc1ncc(NC(=O)c2cccc([C@@H]3C[C@H]3NC3CCC(F)(F)CC3)c2)s1` (relative stereo) [Example 211, 3-(trans-2-((4,4-difluorocyclohexyl)amino)cyclopropyl)-N-(2-methyl-1,3-thiazol-5-yl)benzamide dihydrochloride], for which the IC50 in assay [1] was under 100 nM; in assay [2], over 10000 nM; in assay [3], over 10000 nM.
On to `N[C@@H]1C[C@H]1c1ccc(C(=O)N2CCCCC2)cc1` (relative stereo) [Example 7, (4-(trans-2-aminocyclopropyl)phenyl)(piperidin-1-yl)methanone hydrochloride], for which the half-inhibitory concentration (IC50) is under 100 nM in assay [1], 800 nM in assay [2] and over 10000 nM in assay [3].
Consider `O=C(c1ccc([C@@H]2C[C@H]2NCC2CC2)cc1)N1Cc2cccnc2C1` (relative stereo) [Example 20, (4-(trans-2-((cyclopropylmethyl)amino)cyclopropyl)phenyl)(5,7-dihydro-6H-pyrrolo[3,4-b]pyridin-6-yl)methanone bis(trifluoroacetate)], for which the values for the IC50 in assay [1], in assay [2] and in assay [3] were under 100 nM, over 10000 nM and over 10000 nM, respectively.
With `O=C(NCc1ccccc1)c1cccc([C@@H]2C[C@H]2NCC2CC2)c1` (relative stereo) [Example 14, N-benzyl-3-(trans-2-((cyclopropylmethyl)amino)cyclopropyl)benzamide hydrochloride], the IC50 was under 100 nM in assay [1], 8100 nM in assay [2] and over 10000 nM in assay [3].
On the same counts, the results for `Cc1nnc(NC(=O)c2cccc([C@@H]3C[C@H]3NCC(C)(C)C)c2)s1` (relative stereo) [Example 158, 3-(trans-2-((2,2-dimethylpropyl)amino)cyclopropyl)-N-(5-methyl-1,3,4-thiadiazol-2-yl)benzamide dihydrochloride] are under 100 nM, over 10000 nM and over 10000 nM.
For `O=C(Nc1ccccc1)c1ccc([C@@H]2C[C@H]2NCC2CC2)cc1` (relative stereo) [Example 8, 4-(trans-2-((cyclopropylmethyl)amino)cyclopropyl)-N-phenylbenzamide hydrochloride] the same measures were under 100 nM, 8300 nM and 4600 nM.
For `O=C(Nc1cnn(CC2CC2)c1)c1cccc([C@@H]2C[C@H]2NC2CCC2)c1` (relative stereo) [Example 201, 3-(trans-2-(cyclobutylamino)cyclopropyl)-N-(1-(cyclopropylmethyl)-1H-pyrazol-4-yl)benzamide dihydrochloride] the same measures were under 100 nM, over 10000 nM and over 10000 nM.
With `O=C(Nc1ccc2nccnc2c1)c1cccc([C@@H]2C[C@H]2NCC2CC2)c1` (relative stereo) [Example 143, 3-(trans-2-((cyclopropylmethyl)amino)cyclopropyl)-N-(quinoxalin-6-yl)benzamide bis(trifluoroacetate)], the figures for the IC50 in assay [1], in assay [2] and in assay [3] were under 100 nM, 2100 nM and over 10000 nM, respectively.
With `O=C(NCc1ccccc1)c1ccc([C@@H]2C[C@H]2NCc2ccc(C(F)(F)F)cc2)cc1` (relative stereo) [Example 38, N-benzyl-4-(trans-2-((4-(trifluoromethyl)benzyl)amino)cyclopropyl)benzamide trifluoroacetate], the half-maximal inhibitory concentration (IC50) is under 100 nM in assay [1], 2200 nM in assay [2] and over 10000 nM in assay [3].
For `CN(Cc1ccccc1)C(=O)c1ccc([C@@H]2C[C@H]2N)cc1` (relative stereo) [Example 9, 4-(trans-2-aminocyclopropyl)-N-benzyl-N-methylbenzamide hydrochloride] the same measures were under 100 nM, 120 nM and over 10000 nM.
On the same counts, the results for `CN(C)c1ccccc1CN[C@@H]1C[C@H]1c1ccc(C(=O)NCc2ccccc2)cc1` (relative stereo) [Example 42, N-benzyl-4-(trans-2-((2-(dimethylamino)benzyl)amino)cyclopropyl)benzamide bis(trifluoroacetate)] are under 100 nM, 3400 nM and over 10000 nM.
On the same counts, the results for `O=C(NCc1ccccn1)c1ccc([C@@H]2C[C@H]2NCC2CC2)cc1` (relative stereo) [Example 16, 4-(trans-2-((cyclopropylmethyl)amino)cyclopropyl)-N-(pyridin-2-ylmethyl)benzamide bis(trifluoroacetate)] are under 100 nM, over 10000 nM and over 10000 nM.
